According to patent US10407421B2, “Bicyclic aryl monobactam compounds and methods of use thereof for the treatment of bacterial infections” (priority 2016, dated 2019):
Counter-ions that a name gives are not always drawn.

Experiments:
Format in all cases: cell-based
Conditions in all cases: in the presence of β lactamase inhibitor Relebactam 4 μg/mL; 22 hours at 35±2° C.; lowest concentration inhibiting 95% of growth (OD600)
[1] = tested on: Pseudomonas aeruginosa expressing AmpC (CL5701); experiment: Growth inhibitory concentration (OD600), Pseudomonas aeruginosa CL5701
Description: (§1) Antibiotic Activity: Determination of Growth Inhibitory Concentration
(§2) The concentrations of compounds required to inhibit the growth of various strains of bacteria were determined in an assay that assessed bacterial growth by measuring optical density at 600 nm (OD600). The bacterial strains tested included the clinical strains Escherichia coli expressing NDM-1 (CLB30016), Klebsiella pneumoniae expressing KPC-1 (CL6569), Acinetobacter baumannii expressing TEM-1, AmpC, and Oxa-24/40 (CL6188) and Pseudomonas aeruginosa expressing AmpC (CL5701). All compounds were tested in the presence of a β lactamase inhibitor (BLi, Relebactam) in 384-well microplates. The clinical strains were stored as frozen single use stocks, thawed and diluted into 1.1× cation-adjusted Mueller-Hinton II broth to achieve approximately 2×10^5 CFU/mL. Test compounds were dissolved in DMSO and diluted 1:50 in the assay, resulting in a final concentration range of 100 μM to 0.098 μM. […] At the end of the incubation, absorbance at 600 nm was determined using a spectrophotometer. Inhibition was quantitated by identifying the lowest concentration of test compound that was required to inhibit 95% of the growth of the bacteria. The results for Examples 1-73 are reported in Table I, expressed as the concentration of compound that inhibited 95% of bacterial growth (Minimum Inhibitory Threshold Concentration; MITC95).

[2] = tested on: Escherichia coli expressing NDM-1 (CLB30016); experiment: Growth inhibitory concentration (OD600), Escherichia coli CLB30016
Description: as §1, §2

[3] = tested on: Klebsiella pneumoniae expressing KPC-1 (CL6569); experiment: Growth inhibitory concentration (OD600), Klebsiella pneumoniae CL6569
Description: as §1, §2

[4] = tested on: Acinetobacter baumannii expressing TEM-1, AmpC, and Oxa-24/40 (CL6188); experiment: Growth inhibitory concentration (OD600), Acinetobacter baumannii CL6188
Description: as §1, §2

For `C[n+]1c2ccc(OC[C@H](O/N=C(\C(=O)N[C@@H]3C(=O)N(OS(=O)(=O)[O-])C3(C)C)c3csc(N)n3)C(=O)O)cc2cn1C[C@H](O)CN` [Example 51, (S)-3-((Z)-2-(((S)-2-((2-((R)-3-amino-2-hydroxypropyl)-1-methyl-2H-indazol-1-ium-5-yl)oxy)-1-carboxyethoxy)imino)-2-(2-aminothiazol-4-yl)acetamido)-2,2-dimethyl-4-oxoazetidin-1-yl Sulfate], the “PA_CL5701 MITC95” value [1] was 12.5 µM, the “EC_CLB30016 MITC95” value [2] was 25 µM and the “KP_CL6569 MITC95” value [3] was 0.78 µM. The “AB_CL6188 MITC95” value [4] was 6.25 µM.
